Experimental data from ChEMBL document CHEMBL1159240, “(-)-Roemerine, an aporphine alkaloid from Annona senegalensis that reverses the multidrug-resistance phenotype with cultured cells” (1995).
In brackets after ≈: the same amount, converted by molar mass.

Experiments:
[1] = Cytotoxicity against human multidrug resistant KBV1 cells in presence of vinblastine; assay type: functional; conditions: KB-V1, read-out: ED50 (the source's name)
[2] = system: Lu1; assay: Cytotoxicity against human Lu1 cells after 72 hrs by SRB assay; assay type: functional; conditions: Lu1, 72 h, read-out: ED50 (the source's name)
[3] = Cytotoxicity against human multidrug resistant KBV1 cells in absence of vinblastine after 72 hrs by SRB assay; assay type: functional; conditions: KB-V1, 72 h, read-out: ED50 (the source's name)
[4] = Cytotoxicity against human U373 cells after 72 hrs by SRB assay; assay type: functional, U-373MG ATCC; conditions: U373 MG, read-out: ED50 (the source's name)
[5] = system: LNCaP; assay: Cytotoxicity against human LNCAP cells after 72 hrs by SRB assay; assay type: functional; conditions: read-out: ED50 (the source's name)
[6] = Cytotoxicity against human BC1 cells after 72 hrs by SRB assay; assay type: functional; conditions: BC1, 72 h, read-out: ED50 (the source's name)
[7] = system: HT; assay: Cytotoxicity against human HT cells after 72 hrs by SRB assay; assay type: functional; conditions: read-out: ED50 (the source's name)
[8] = system: A-431; assay: Cytotoxicity against human A431 cells after 72 hrs by SRB assay; assay type: functional; conditions: A-431, 72 h, read-out: ED50 (the source's name)
[9] = system: Col2; assay: Cytotoxicity against human Col2 cells after 72 hrs by SRB assay; assay type: functional; conditions: Col2, 72 h, read-out: ED50 (the source's name)
[10] = Cytotoxicity against human KB3 cells after 72 hrs by SRB assay; assay type: functional; conditions: KB3, 72 h, read-out: ED50 (the source's name)
[11] = system: SK-MEL-2; assay: Cytotoxicity against human SK-MEL-2 cells after 72 hrs by SRB assay; assay type: functional; conditions: SK-MEL-2, 72 h, read-out: ED50 (the source's name)
[12] = system: ZR-75-1; assay: Cytotoxicity against human ZR-75-1 cells after 72 hrs by SRB assay; assay type: functional; conditions: ZR-75-1, 72 h, read-out: ED50 (the source's name)
[13] = system: P388; assay: Cytotoxicity against mouse P388 cells after 72 hrs by SRB assay; assay type: functional; conditions: P388, 72 h, read-out: ED50 (the source's name)

CN1CCc2cc3c(c4c2[C@H]1Cc1ccccc1-4)OCO3
EC50 [1]: 0.6 µg/mL | EC50 [2]: 6.6 µg/mL (≈ 23.6 µM) | EC50 [3]: > 20 µg/mL | EC50 [4]: 5 µg/mL (≈ 17.9 µM) | EC50 [5]: 10.7 µg/mL (≈ 38.3 µM) | EC50 [6]: 8.3 µg/mL (≈ 29.7 µM) | EC50 [7]: 6.4 µg/mL (≈ 22.9 µM) | EC50 [8]: 4.3 µg/mL (≈ 15.4 µM) | EC50 [9]: 5.8 µg/mL (≈ 20.8 µM) | EC50 [10]: > 20 µg/mL | EC50 [11]: > 20 µg/mL | EC50 [12]: > 20 µg/mL | EC50 [13]: > 5 µg/mL
